Where two headings read alike, the source gives them in different places.
Tests used:
AcTrxR-L [1] = assay: Inhibition of AcTrxR-L, direct DTNB reduction assay; format: biochemical, Acanthamoeba castellanii; conditions: for IC50: DTNB reduction; for Reversibility of AcTrxR-L inhibition after desalting: removal of compound from solution by desalting
Protocol: (§1) The reaction consisted of incubating 50 nM AcTrxR-L with 0.5–10 μM of auranofin, TRi-1 or TRi- 2, or 1% v/v DMSO, 250 μM NADPH and 0.01 mg/ml BSA in TE buffer for 30 min ([Fata et al., 2022]). Then, the reaction was diluted 5-fold and 200 μl was desalted using Zeba™ Spin Desalting Columns and Plates, 40K MWCO (Thermo Scientific, 87767), whereupon 100 μl of the reactions, either desalted or not desalted, were transferred to each well of a 96 well plate. Subsequently, 250 μM NADPH and 1 mM DTNB were added to each well. The TNB^− formation at A412 nm was followed by a spectrophotometer and experiments were carried out in duplicates. The IC50 values were determined based on the nonlinear regression (curve fit), dose-response-inhibitor equation, log (inhibitor) vs. normalized response (variable slope) using GraphPad Prism.

[2] = tested on: Acanthamoeba strain Neff trophozoites; assay: In vitro amoebicide assay, trypan blue direct counting; format: cell-based, Acanthamoeba castellanii
Protocol: Acanthamoeba castellanii strain Neff (ATCC® 30010™) genotype T4 was used for all experiments. The amoebae were grown in peptone yeast extract-glucose medium (PYG) in 75 cm^2 tissue culture flasks at 25 °C with weekly medium changes as described previously ([Köhsler et al., 2022]).
The amoebicidal activity was assessed by direct counting, using trypan blue ([Martín-Pérez et al., 2021]) and assayed in sterile 96-well microplates. Diverse drug concentrations (0–20 μM) were prepared via serial dilutions in DMSO, keeping total DMSO at 5% in the control well and in the drug solution wells ranging 5–3%. Amoebae from log-phase cultures (5 × 10^4 trophozoites/well) were inoculated into the microplates and the trophozoites were resuspended in PYG medium. Drug assays contained 100 μL of trophozoites solution, 90 μL of PYG media and 10 μL of the drug solution per well. The growth control (positive control) included 100 μL of trophozoites solution, 90 μL of PYG medium and 10 μL of DMSO. Each drug concentration and control were investigated in triplicates and each experiment was repeated in two independent setups. The plates were incubated at 25 °C during 4, 24, 48 and 72 h. Samples were placed in a Bürker-Türk counting chamber. The IC50 was calculated using GraphPad Prism, as explained previously.

[3] = tested on: human corneal epithelial cells (HCECs); assay: Cytotoxicity test on human corneal epithelial cells (CellTiter 96 AQueous One); format: cell-based; conditions: HCEC; for TD50 24 h: 24 h of treatment; for TD50 48 h: 48 h of treatment; for TD50 72 h: 72 h of treatment
Protocol: Cytotoxicity of the compounds towards human corneal epithelial cells (HCECs) (Innoprot, ref. P10871) was determined ([Loufouma Mbouaka et al., 2023]) in 96-well microplates. The HCECs (1 × 10^4 cells/well) were grown in 100 μL of corneal epithelial cell medium (CEpiCM) (Innoprot, ref. P60131) supplemented with 1% of corneal epithelial cell growth supplement (CEpiCGS), 2% of fetal bovine serum (FBS) and 1% antibiotic mix: 10,000 U penicillin, 10 mg streptomycin and 25 μg amphotericin B per milliliter. After overnight incubation, cytotoxicity was evaluated adding 20 μL of CellTiter 96® AQueous One Solution Reagent (Promega, Madison, WI, USA). After 1 h of incubation at 37 °C, the absorbance at 490 nm was read using a spectrophotometer (Tecan, Spark 10M, Switzerland).
The TD50 values were calculated using the same method as the IC50 values with GraphPad Prism. Moreover, the therapeutic index was determined as the ratio of TD50 to IC50 ([Muller and Milton, 2012]).

AcTrxR-S = tested on: AcTrxR-S; set-up: method as in Leitsch et al., 2021; conditions: ref Leitsch et al., 2021; read-out: IC50 enzymatic activity of AcTrxR-S; cited from earlier work
[4] = tested on: different strains of Acanthamoeba; conditions: ref Feng et al. (2020); read-out: IC50 against Acanthamoeba trophozoites; cited from earlier work
Schistosoma mansoni = tested on: Schistosoma mansoni; set-up: method as in Kuntz et al., 2007; conditions: treatment of infected mice; ref Kuntz et al., 2007; cited from earlier work
AcTrxR-L [5] = molecular target: T1, AcTrxR-L (Acanthamoeba castellanii, UniProt L8HG59); assay: DTNB reduction at 412 nm (250 μM NADPH, 1 mM DTNB, TE buffer) after preincubation of 50 nM AcTrxR-L with inhibitor, 250 μM NADPH and 0.01 mg/ml BSA for 30 min (10 min in results), diluted 5-fold, without desalting.; format: biochemical; conditions: n = 2; read-out: IC50 (μM), Not desalted
T1 construct: gene ACA1_153040; recombinant selenoprotein from E. coli C321.ΔA (pABC2a, UAG as Sec codon, SECIS element); N-terminal His-SUMO removed with ULP1; homodimer with one FAD per subunit
T1 sequence (L8HG59 1-526): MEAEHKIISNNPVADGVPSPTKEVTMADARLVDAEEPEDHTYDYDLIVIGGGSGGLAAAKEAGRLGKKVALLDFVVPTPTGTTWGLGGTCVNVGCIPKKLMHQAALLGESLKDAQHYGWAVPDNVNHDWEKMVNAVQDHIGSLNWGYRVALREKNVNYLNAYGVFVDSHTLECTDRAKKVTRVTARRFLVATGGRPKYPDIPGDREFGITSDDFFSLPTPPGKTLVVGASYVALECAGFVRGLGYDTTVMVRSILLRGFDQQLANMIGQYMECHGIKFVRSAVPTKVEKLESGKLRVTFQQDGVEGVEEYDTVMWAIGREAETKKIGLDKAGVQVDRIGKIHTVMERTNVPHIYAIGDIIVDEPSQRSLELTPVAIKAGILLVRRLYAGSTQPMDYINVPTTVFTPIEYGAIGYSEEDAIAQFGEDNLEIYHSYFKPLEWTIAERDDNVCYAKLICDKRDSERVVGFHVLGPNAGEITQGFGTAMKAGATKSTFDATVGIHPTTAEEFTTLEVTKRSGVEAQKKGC
Protocol: as §1, with “Then,” for “The reaction consisted of incubating 50 nM AcTrxR-L with 0.5–10 μM of auranofin, TRi-1 or TRi- 2, or 1% v/v DMSO, 250 μM NADPH and 0.01 mg/ml BSA in TE buffer for 30 min ([Fata et al., 2022]). Then,”

AcTrxR-L [6] = molecular target: T1, AcTrxR-L; assay: DTNB reduction at 412 nm (250 μM NADPH, 1 mM DTNB, TE buffer) after preincubation of 50 nM AcTrxR-L with inhibitor, 250 μM NADPH and 0.01 mg/ml BSA for 30 min (10 min in results), diluted 5-fold and desalted to remove free inhibitor.; format: biochemical; conditions: n = 2
Protocol: as §1, with “Then,” for “The reaction consisted of incubating 50 nM AcTrxR-L with 0.5–10 μM of auranofin, TRi-1 or TRi- 2, or 1% v/v DMSO, 250 μM NADPH and 0.01 mg/ml BSA in TE buffer for 30 min ([Fata et al., 2022]). Then,”

AcTrxR-L [7] = assay: Direct DTNB reduction assay; format: biochemical, Acanthamoeba castellanii
Protocol: Unless stated otherwise, all enzyme assays for AcTrxR-L were based upon well-established selenoprotein TrxR assays, as outlined earlier ([Arnér, 2018]). Kinetic parameters of AcTrxR-L were determined with different biochemical assays in triplicates in cuvettes as previously described ([Fata et al., 2022]). First, the specific activity of AcTrxR-L was calculated from its NADPH-dependent DTNB reduction. The reaction mixture contained 10 nM AcTrxR-L, 250 μM NADPH, and 2.5 mM DTNB in TE buffer (50 mM Tris and 2 mM EDTA, pH 7.5), and the reduction of DTNB was monitored by measuring the formation of the TNB^− anion at A412 nm on a spectrophotometer. Each DTNB is reduced into 2 molecules of TNB^− with extinction coefficient of 13,600 M^−1cm^−1 at 412 nm and the specific activity of the enzyme was calculated as Unit per mg (U/mg), with 1 U (μmol/min) defined as conversion of 1 μmol of DTNB substrate per minute.
Apparent Michaelis-Menten parameters were in all cases calculated based on the nonlinear fit of the velocity vs substrate concentration curves to the Michaelis-Menten equation by using GraphPad Prism.

HCEC = tested on: HCEC; set-up: method as in Martín-Pérez et al., 2019; conditions: ref Martín-Pérez et al., 2019; read-out: IC50 against HCEC; cited from earlier work
[8] = substrate: O=C(O)c1cc(SSc2ccc([N+](=O)[O-])c(C(=O)O)c2)ccc1[N+](=O)[O-]; assay: purified protein, by the assay type; conditions: pH 7.5
[9] = after removal of the inhibitors by desalting, read-out: IC50 Desalted
[10] = in presence of the inhibitors, 50 nM AcTrxR-L, read-out: IC50 Not desalted
[11] = 48 h of treatment, read-out: IC50 48 h
[12] = 72 h of treatment, read-out: IC50 72 h

CC(=O)OC[C@H]1O[C@@H]([S-])[C@H](OC(C)=O)[C@@H](OC(C)=O)[C@@H]1OC(C)=O.CCP(CC)CC.[Au+] [Auranofin, auranofin]
IC50 (AcTrxR-L [1]; [9]): 320 ± 550 nM | IC50 (AcTrxR-L [1]; [10]): 320 ± 390 nM | Reversibility of AcTrxR-L inhibition after desalting (AcTrxR-L [1]): irreversibly inhibit the enzyme | IC50 [2, 11]: 21100 ± 11000 nM | IC50 [2, 12]: 5640 ± 1350 nM | TD50 24 h [3]: 2.79 ± 0.076 µM | TD50 48 h [3]: 1.18 ± 0.103 µM | TD50 72 h [3]: 0.97 ± 0.045 µM | IC50 (AcTrxR-S): 216 nM | IC50 [4]: 5790 nM | Reduction of worm burden (Schistosoma mansoni): 60%

COc1ccc([N+](=O)[O-])c(S(=O)(=O)c2ccc(Cl)cc2)n1 [TRi-1]
IC50 (AcTrxR-L [1]; [9]): 370 ± 110 nM | IC50 (AcTrxR-L [1]; [10]): 360 ± 70 nM | Reversibility of AcTrxR-L inhibition after desalting (AcTrxR-L [1]): irreversibly inhibit the enzyme | IC50 ([2]; 24 h of treatment, read-out: IC50 24 h): 17700 ± 1640 nM | IC50 [2, 11]: 7650 ± 1710 nM | IC50 [2, 12]: 4290 ± 862 nM | TD50 24 h [3]: 8.84 ± 0.044 µM | TD50 48 h [3]: 8.40 ± 0.168 µM | TD50 72 h [3]: 8.40 ± 0.003 µM

CC[PH](CC)(CC)[Au][S][C@@H]1O[C@H](COC(C)=O)[C@@H](OC(C)=O)[C@H](OC(C)=O)[C@H]1OC(C)=O [Auranofin, auranofin (Ridaura), gold-based compound]
IC50 (AcTrxR-L [5]): 0.32 ± 0.39 µM | IC50 (AcTrxR-L [6]): 0.32 ± 0.55 µM

thioredoxin reductase inhibitor -2 [TRi-2]
IC50 (AcTrxR-L [5]): > 10 µM | IC50 (AcTrxR-L [6]): > 10 µM

O=C(O)c1cc(SSc2ccc([N+](=O)[O-])c(C(=O)O)c2)ccc1[N+](=O)[O-] [DTNB]
Km (AcTrxR-L [7]): 384 ± 63.7 µM | Vmax (AcTrxR-L [7]): 238.1 ± 19.01 µmol/min/mg | kcat (AcTrxR-L [7]): 79.37 s⁻¹

COc1ccc([N+](=O)[O-])c(S(=O)(=O)c2ccc(Cl)cc2)n1 [TRi-1, thioredoxin reductase inhibitor -1]
IC50 (AcTrxR-L [5]): 0.36 ± 0.07 µM | IC50 (AcTrxR-L [6]): 0.37 ± 0.11 µM

[H]/N=C(\N/C(=N/[H])NCCCCCCNC(=N)NC(=N)Nc1ccc(Cl)cc1)Nc1ccc(Cl)cc1 [chlorhexidine]
IC50 (HCEC): 1580 nM

B1: AcTrxR-L (Acanthamoeba castellanii str. Neff) (protein)
chain: MEAEHKIISNNPVADGVPSPTKEVTMADARLVDAEEPEDHTYDYDLIVIGGGSGGLAAAKEAGRLGKKVALLDFVVPTPTGTTWGLGGTCVNVGCIPKKLMHQAALLGESLKDAQHYGWAVPDNVNHDWEKMVNAVQDHIGSLNWGYRVALREKNVNYLNAYGVFVDSHTLECTDRAKKVTRVTARRFLVATGGRPKYPDIPGDREFGITSDDFFSLPTPPGKTLVVGASYVALECAGFVRGLGYDTTVMVRSILLRGFDQQLANMIGQYMECHGIKFVRSAVPTKVEKLESGKLRVTFQQDGVEGVEEYDTVMWAIGREAETKKIGLDKAGVQVDRIGKIHTVMERTNVPHIYAIGDIIVDEPSQRSLELTPVAIKAGILLVRRLYAGSTQPMDYINVPTTVFTPIEYGAIGYSEEDAIAQFGEDNLEIYHSYFKPLEWTIAERDDNVCYAKLICDKRDSERVVGFHVLGPNAGEITQGFGTAMKAGATKSTFDATVGIHPTTAEEFTTLEVTKRSGVEAQKKGC
Km [8]: 384.1 ± 63.74 µM | Vmax [8]: 238 µmol/min/mg | kcat [8]: 79.4 s⁻¹ | kcat/Km [8]: 200000 M⁻¹ s⁻¹
